Among the test systems are HOP-62 NSCLC; SK-MEL-28 melanoma; SK-MEL-5 melanoma; SNB-75 CNS; NCI-H522 lung; IGROV1 ovarian; UACC-62 melanoma; HS 578T breast; HCC-2998 colon; OVCAR-4 ovarian.
Assay in all cases: DTP human tumour cell line panel, 48 h

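Dose response: 5 concentrations. Exposure: 48 h. Format: 96-well plates. Endpoint: linear interpolation; highest concentration if not reached. GI50 marks 50% less growth. TGI: concentration producing complete growth inhibition.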

Usually GI50 stands for the concentration giving 50% growth inhibition. The TGI is the concentration giving total growth inhibition. As to `Cn1ncc2c(N)nc(N3CCCCC3)nc21`, the GI50 is 51.9 µM in the experiment on HOP-62 NSCLC; 24.1 µM with SK-MEL-28 melanoma; 18.4 µM with SK-MEL-5 melanoma; 29.7 µM in the experiment with SNB-75 CNS; 23 µM in the experiment with NCI-H522 lung; 33.9 µM with IGROV1 ovarian. Further, the GI50 was 19.6 µM with UACC-62 melanoma, 28.3 µM in the experiment with HS 578T breast, 18.6 µM with HCC-2998 colon and 27.2 µM with OVCAR-4 ovarian. Further, the TGI in the experiment with HOP-62 NSCLC is more than 100 µM; in the experiment with SK-MEL-28 melanoma, more than 100 µM; with SK-MEL-5 melanoma, 33.8 µM; in the experiment on SNB-75 CNS, more than 100 µM; in the experiment on NCI-H522 lung it was 63.9 µM; in the experiment with IGROV1 ovarian, more than 100 µM. The TGI with UACC-62 melanoma is 37.3 µM; with HS 578T breast, 76.3 µM; in the experiment with HCC-2998 colon, 58.6 µM; in the experiment on OVCAR-4 ovarian, more than 100 µM.

In the case of `O=[N+]([O-])c1ccc(N/N=C/c2c(O)ccc3ccccc23)nc1`, the GI50 was 6.82 µM in the experiment on HOP-62 NSCLC; more than 100 µM in the experiment with SK-MEL-28 melanoma; 20.1 µM in the experiment with SK-MEL-5 melanoma; more than 100 µM in the experiment with SNB-75 CNS; 3.74 µM with NCI-H522 lung; 7.48 µM in the experiment on IGROV1 ovarian. The GI50 in the experiment with UACC-62 melanoma was 9.82 µM; in the experiment with HS 578T breast it was 57.8 µM; in the experiment with HCC-2998 colon it was 28.8 µM; in the experiment with OVCAR-4 ovarian, 0.783 µM. In addition, the TGI in the experiment with HOP-62 NSCLC, with SK-MEL-28 melanoma, in the experiment with SK-MEL-5 melanoma, in the experiment on SNB-75 CNS, with NCI-H522 lung and in the experiment with IGROV1 ovarian was more than 100 µM in each case. In addition, the TGI in the experiment on UACC-62 melanoma, in the experiment on HS 578T breast, with HCC-2998 colon and in the experiment on OVCAR-4 ovarian was more than 100 µM each time.

As for `OCC1OC(n2ccc3c(NO)ncnc32)C(O)C1O` (stereo not given), the GI50 in the experiment with HOP-62 NSCLC is 0.219 µM; in the experiment with SK-MEL-28 melanoma, 0.231 µM; in the experiment with SK-MEL-5 melanoma, 0.171 µM; in the experiment on SNB-75 CNS, 0.172 µM; in the experiment on NCI-H522 lung, 0.188 µM; in the experiment on IGROV1 ovarian, 0.088 µM. Moreover, the GI50 is 0.128 µM with UACC-62 melanoma, 0.332 µM in the experiment with HS 578T breast, 0.25 µM in the experiment on HCC-2998 colon and 0.124 µM with OVCAR-4 ovarian. In addition, the TGI was 2.51 µM with HOP-62 NSCLC; 0.873 µM in the experiment with SK-MEL-28 melanoma; 0.325 µM in the experiment on SK-MEL-5 melanoma; 1.82 µM in the experiment with SNB-75 CNS; 0.718 µM with NCI-H522 lung; 1.17 µM in the experiment on IGROV1 ovarian. In addition, the TGI in the experiment with UACC-62 melanoma was 0.326 µM; in the experiment on HS 578T breast it was more than 24.1 µM; in the experiment on HCC-2998 colon, 1 µM; in the experiment with OVCAR-4 ovarian it was 1.3 µM.

As for `N#Cc1cnc2cc(OC[C@@H](O)CO)c(NC(=O)CC3CSSC3)cc2c1Nc1ccc(OCc2cccc(F)c2)c(Cl)c1`, the GI50 was 0.311 µM with HOP-62 NSCLC; 0.0632 µM in the experiment with SK-MEL-28 melanoma; 0.743 µM in the experiment with SK-MEL-5 melanoma; 0.738 µM with SNB-75 CNS; 0.336 µM with NCI-H522 lung; 0.288 µM in the experiment with IGROV1 ovarian. For the same compound, the GI50 in the experiment with UACC-62 melanoma is 0.38 µM; in the experiment with HS 578T breast it was 0.105 µM; in the experiment with HCC-2998 colon, 0.164 µM; in the experiment on OVCAR-4 ovarian, 0.128 µM. In addition, the TGI in the experiment with HOP-62 NSCLC is 0.896 µM; in the experiment on SK-MEL-28 melanoma, 0.136 µM; in the experiment on SK-MEL-5 melanoma it was 1.43 µM; in the experiment with SNB-75 CNS, 1.58 µM; in the experiment with NCI-H522 lung, 0.973 µM; in the experiment with IGROV1 ovarian, 1.11 µM. For the same compound, the TGI in the experiment with UACC-62 melanoma is 1.08 µM; in the experiment on HS 578T breast, 0.282 µM; in the experiment with HCC-2998 colon, 0.506 µM; with OVCAR-4 ovarian, 0.381 µM.

`COC(=O)c1sc(C(=O)OC)c2c1CSC2`: the TGI in the experiment on HOP-62 NSCLC is more than 100 µM; in the experiment on SK-MEL-28 melanoma, more than 100 µM; in the experiment on SK-MEL-5 melanoma it was more than 100 µM; in the experiment with SNB-75 CNS, 57.7 µM; in the experiment on NCI-H522 lung it was more than 100 µM; with IGROV1 ovarian, more than 100 µM. The TGI with UACC-62 melanoma, with HS 578T breast, in the experiment with HCC-2998 colon and with OVCAR-4 ovarian was more than 100 µM each time.

On to `COc1ccccc1NC(=O)n1nc(N)c2ccccc21`, for which the GI50 with HOP-62 NSCLC was more than 69.3 µM; in the experiment with SK-MEL-28 melanoma, more than 100 µM; with SK-MEL-5 melanoma, more than 87.9 µM; with SNB-75 CNS, 37 µM; in the experiment with NCI-H522 lung, 53.9 µM; with IGROV1 ovarian, 14.7 µM. In addition, the GI50 is more than 100 µM in the experiment with UACC-62 melanoma, 36.3 µM in the experiment with HS 578T breast, more than 81.4 µM in the experiment on HCC-2998 colon and more than 68.1 µM in the experiment with OVCAR-4 ovarian. In addition, the TGI in the experiment with HOP-62 NSCLC, with SK-MEL-28 melanoma, in the experiment on SK-MEL-5 melanoma, in the experiment on SNB-75 CNS, in the experiment with NCI-H522 lung and in the experiment with IGROV1 ovarian was more than 100 µM each time. The TGI with UACC-62 melanoma, with HS 578T breast, in the experiment with HCC-2998 colon and in the experiment with OVCAR-4 ovarian was more than 100 µM in each case.

For `CCOC(=O)C(=Cc1ccccc1[N+](=O)[O-])C(=O)OCC`, the GI50 in the experiment on HOP-62 NSCLC was 3.48 µM; with SK-MEL-28 melanoma, 2.93 µM; with SK-MEL-5 melanoma it was 1.33 µM; in the experiment on SNB-75 CNS, 2.57 µM; in the experiment with NCI-H522 lung, 1.86 µM; in the experiment with IGROV1 ovarian it was 3.77 µM. Moreover, the GI50 in the experiment with UACC-62 melanoma was 1.59 µM; with HS 578T breast, 2.71 µM; in the experiment on HCC-2998 colon it was 3.48 µM; in the experiment on OVCAR-4 ovarian, 4.68 µM. Further, the TGI with HOP-62 NSCLC turned out to be 12.9 µM; in the experiment with SK-MEL-28 melanoma, 9.59 µM; in the experiment with SK-MEL-5 melanoma, 2.66 µM; with SNB-75 CNS it was 9.68 µM; with NCI-H522 lung, 4.63 µM; in the experiment with IGROV1 ovarian, 15.4 µM. The TGI in the experiment with UACC-62 melanoma was 3.39 µM; with HS 578T breast, 11.6 µM; with HCC-2998 colon it was 10.7 µM; with OVCAR-4 ovarian, 18.1 µM.

For the compound `Clc1ccc2[nH]cc(-c3nc(-c4c[nH]c5ncccc45)cs3)c2c1`, the GI50 is 5.2 µM in the experiment with HOP-62 NSCLC; 6.43 µM in the experiment on SK-MEL-28 melanoma; 2.98 µM in the experiment on SK-MEL-5 melanoma; 3.25 µM in the experiment on SNB-75 CNS; 2.73 µM in the experiment with NCI-H522 lung; 3.04 µM in the experiment with IGROV1 ovarian. In addition, the GI50 in the experiment on UACC-62 melanoma was 4 µM; with HS 578T breast, 7.59 µM; in the experiment with HCC-2998 colon, 4.63 µM; in the experiment with OVCAR-4 ovarian it was 2.85 µM. In addition, the TGI in the experiment on HOP-62 NSCLC was 27.3 µM; in the experiment on SK-MEL-28 melanoma, 20.1 µM; in the experiment with SK-MEL-5 melanoma it was 12.5 µM; in the experiment with SNB-75 CNS, 35.3 µM; with NCI-H522 lung it was 13.7 µM; in the experiment with IGROV1 ovarian it was 28.6 µM. The TGI in the experiment on UACC-62 melanoma was 16.5 µM; in the experiment with HS 578T breast, more than 100 µM; in the experiment with HCC-2998 colon, 21.8 µM; in the experiment on OVCAR-4 ovarian, 36.5 µM.

The values are drawn from PubChem BioAssay (NCI).
